In paper PMC2229574 (The Journal of General Physiology, 2003):
Several values for one entry are separate records, joined by “and”; a condition that tells them apart may be missing. Equal entries are not always repeated. Where two headings read alike, the source gives them in different places.

Columns and labels:
[1] = tested on: hybrid AChR (one wild-type α-subunit and one D97A α-subunit), hybrid 1; conditions: 20 mM choline
[2] = target: mouse AChR β-subunit G98A (Mus musculus, UniProt P02716+P04756+P09690+P20782, G121A); conditions: 20 mM choline
[3] = target: mouse AChR αD97G (Mus musculus, UniProt P02716+P04756+P20782, D117G); conditions: for β2 (diliganded channel opening rate constant): 20 mM choline
[4] = target: mouse AChR δ-subunit D99A (Mus musculus, UniProt P02716+P04756+P20782, D123A); conditions: 20 mM choline
[5] = target: mouse AChR β-subunit D97V (Mus musculus, UniProt P02716+P04756+P09690+P20782, D120V); conditions: 20 mM choline
[6] = target: mouse AChR δ-subunit N98V (Mus musculus, UniProt P02716+P04756+P20782, N122V); conditions: 20 mM choline
[7] = target: mouse AChR ɛ-subunit D97A (Mus musculus, UniProt P02716+P04756+P20782, D117A); conditions: 20 mM choline
[8] = target: mouse AChR αD97A (Mus musculus, UniProt P02716+P04756+P20782, D117A)
[9] = target: mouse AChR αD97L (Mus musculus, UniProt P02716+P04756+P20782, D117L)
[10] = target: mouse AChR αD97F (Mus musculus, UniProt P02716+P04756+P20782, D117F)
[11] = target: mouse AChR β-subunit D97A (Mus musculus, UniProt P02716+P04756+P09690+P20782, D120A); conditions: 20 mM choline
[12] = target: T1, wild-type mouse AChR (α2βδɛ) (Mus musculus, UniProt P02716+P04756+P20782); conditions: wt; for L2: choline (Table III / text)
[13] = target: T2, mouse AChR αD97H (Mus musculus, UniProt P02716+P04756+P20782, D117H); conditions: for L2: kinetic modeling
[14] = target: mouse AChR β-subunit G98V (Mus musculus, UniProt P02716+P04756+P09690+P20782, G121V); conditions: 20 mM choline
[15] = target: T2, mouse AChR αD97H; assay: cell-based
[16] = target: T1, wild-type mouse AChR (α2βδɛ); conditions: cited from earlier work
[17] = joint fit choline 1, 2 and 5 mM, Scheme I

T1 sequence (P04756 21-457): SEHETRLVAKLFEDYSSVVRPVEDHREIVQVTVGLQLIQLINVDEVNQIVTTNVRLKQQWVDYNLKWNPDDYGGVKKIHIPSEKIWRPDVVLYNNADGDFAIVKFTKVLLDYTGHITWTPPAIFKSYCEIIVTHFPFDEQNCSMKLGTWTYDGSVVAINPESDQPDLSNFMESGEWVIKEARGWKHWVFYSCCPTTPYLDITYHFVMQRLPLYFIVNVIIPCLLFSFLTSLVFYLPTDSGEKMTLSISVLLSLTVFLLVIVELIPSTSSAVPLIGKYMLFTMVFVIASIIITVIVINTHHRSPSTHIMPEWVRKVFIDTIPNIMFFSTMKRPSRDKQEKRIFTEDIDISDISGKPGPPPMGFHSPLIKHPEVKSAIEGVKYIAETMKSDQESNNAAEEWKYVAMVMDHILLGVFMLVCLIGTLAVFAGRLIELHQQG
T1 sequence (P09690 24-501 partner): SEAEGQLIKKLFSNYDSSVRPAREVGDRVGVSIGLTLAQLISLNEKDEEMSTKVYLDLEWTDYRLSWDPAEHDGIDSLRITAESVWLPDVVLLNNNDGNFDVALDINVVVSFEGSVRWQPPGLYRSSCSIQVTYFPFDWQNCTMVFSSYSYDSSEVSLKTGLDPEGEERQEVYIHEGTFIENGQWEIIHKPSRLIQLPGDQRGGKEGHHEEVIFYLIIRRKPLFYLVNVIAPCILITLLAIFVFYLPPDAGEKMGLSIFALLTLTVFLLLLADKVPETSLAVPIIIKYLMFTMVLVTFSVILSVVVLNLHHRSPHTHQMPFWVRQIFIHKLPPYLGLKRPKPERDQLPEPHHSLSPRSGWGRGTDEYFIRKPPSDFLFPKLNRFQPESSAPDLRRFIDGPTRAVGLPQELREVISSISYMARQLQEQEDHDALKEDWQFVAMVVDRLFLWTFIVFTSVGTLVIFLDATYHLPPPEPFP
T1 sequence (P02716 25-520): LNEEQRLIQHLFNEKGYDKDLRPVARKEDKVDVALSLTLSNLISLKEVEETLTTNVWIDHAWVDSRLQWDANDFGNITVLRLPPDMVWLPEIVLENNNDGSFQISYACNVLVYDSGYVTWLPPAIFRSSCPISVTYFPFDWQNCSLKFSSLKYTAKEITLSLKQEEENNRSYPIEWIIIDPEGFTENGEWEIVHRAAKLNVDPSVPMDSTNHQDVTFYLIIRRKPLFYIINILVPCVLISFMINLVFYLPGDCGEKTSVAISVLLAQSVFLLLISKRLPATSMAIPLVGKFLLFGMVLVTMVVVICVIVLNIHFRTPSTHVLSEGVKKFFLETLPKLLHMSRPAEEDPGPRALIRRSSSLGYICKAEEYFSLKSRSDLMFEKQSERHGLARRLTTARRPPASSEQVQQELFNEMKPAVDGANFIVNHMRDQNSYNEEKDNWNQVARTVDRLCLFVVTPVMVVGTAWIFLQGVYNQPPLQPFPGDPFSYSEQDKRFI
T1 sequence (P20782 21-493): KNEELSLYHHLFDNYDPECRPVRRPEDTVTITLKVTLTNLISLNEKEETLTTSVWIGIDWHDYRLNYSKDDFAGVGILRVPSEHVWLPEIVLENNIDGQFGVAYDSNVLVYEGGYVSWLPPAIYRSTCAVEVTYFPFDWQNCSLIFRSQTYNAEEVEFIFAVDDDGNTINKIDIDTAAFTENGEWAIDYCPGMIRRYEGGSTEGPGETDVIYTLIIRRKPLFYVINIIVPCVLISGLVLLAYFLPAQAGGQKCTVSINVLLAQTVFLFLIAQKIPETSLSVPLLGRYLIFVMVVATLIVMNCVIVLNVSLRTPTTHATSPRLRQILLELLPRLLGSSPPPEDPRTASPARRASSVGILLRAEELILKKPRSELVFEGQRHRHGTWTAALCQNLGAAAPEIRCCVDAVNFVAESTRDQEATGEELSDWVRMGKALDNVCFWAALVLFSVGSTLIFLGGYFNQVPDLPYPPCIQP
Sequence of mouse AChR αD97A (P04756 21-457 D117A): as the sequence (P04756 21-457) above, with D97A counted along it
Sequence of mouse AChR αD97A (P09690 24-501 partner): as the sequence (P09690 24-501 partner) above
Sequence of mouse AChR αD97A (P02716 25-520): as the sequence (P02716 25-520) above
Sequence of mouse AChR αD97A (P20782 21-493, stated change not applied): as the sequence (P20782 21-493) above

α2* (apparent channel closing rate constant) [2]: 861 s⁻¹ | β2 (channel opening rate constant) [2]: 49 s⁻¹ | L2-ratio (mut/wt) ([3]; αD97G kinetic mode G1, choline): 4.20 | α2* (apparent channel closing rate constant) [4]: 630 s⁻¹ | β2 (channel opening rate constant) [4]: 146 s⁻¹ | α2* (apparent channel closing rate constant) [5]: 762 s⁻¹ | β2 (channel opening rate constant) [5]: 85 s⁻¹ | α2* (apparent channel closing rate constant) [6]: 437 s⁻¹ | β2 (channel opening rate constant) [6]: 62 s⁻¹ | α2* (apparent channel closing rate constant) [7]: 645 s⁻¹ | β2 (channel opening rate constant) [7]: 64 s⁻¹ | ΔΔG0 for channel gating, 0.59 ln(L2^wt/L2^mut) ([8]; double αD97A mutant, 20 mM choline): 3.09 kcal mol^−1 | L2-ratio (mut/wt) ([8]; αD97A, choline): 168 | L2-ratio (mut/wt) ([8]; αD97A, choline, listed as Choline): 168.50 | L2-ratio (mut/wt) ([9]; choline): 0.71 | L2-ratio (mut/wt) ([10]; choline): 31.52 | α2* (apparent channel closing rate constant) [11]: 1,320 s^−1 | β2 (channel opening rate constant) [11]: 72 s⁻¹ | β2 (channel opening rate constant) ([12]; 20 mM choline (Table VIII)): 100 s⁻¹ | α2* (apparent channel closing rate constant) ([12]; 20 mM choline, ∼2-fold smaller than α2 because of channel block): 1,100 s^−1 | β2 ([12]; choline (Table III / Fig. 4)): 100 s⁻¹ | L2 [12]: 0.05 | L2 ([12]; listed as Choline): 0.047 | α2 ([12]; choline (Table III)): 2,100 s^−1 | L2-ratio (mut/wt) ([13]; choline): 19.94 | L2 (equilibrium gating constant) from Popen dose–response analysis ([13]; choline, fit by Eq. 2): 1.1 ± 0.5 | L2 ([13]; choline, Scheme I): 1.2 ± 0.1 | L2 ([13]; choline, Scheme I, listed as Choline): 1.15 ± 0.14 | α2 [13, 17]: 2,759 ± 149 s^−1 | β2 [13, 17]: 3,189 ± 168 s^−1 | α2* (apparent channel closing rate constant) [14]: 471 s⁻¹ | β2 (channel opening rate constant) [14]: 80 s⁻¹ | Kd ([15]; Kd (k−/k+), αD97H, choline, kinetic modeling, Scheme I): 2800 µM and 2840 µM | kon ([15]; read-out: k+ (association rate constant, single TBS)): 1.06e+06 M⁻¹ s⁻¹ | koff ([15]; read-out: k− (dissociation rate constant, single TBS)): 2990 s⁻¹
Compound: C[N+](C)(C)CCO [choline]
ΔΔG0 for channel gating, 0.59 ln(L2^wt/L2^mut) [1]: 1.96 kcal mol^−1 | α2 (diliganded channel closing rate constant) ([3]; αD97G kinetic mode G1, 0.4 mM choline): 2,105 s^−1 | β2 (diliganded channel opening rate constant) ([3]; αD97G kinetic mode G1): 421 s⁻¹ | L2 (diliganded gating equilibrium constant, β2/α2) ([3]; αD97G kinetic mode G1, choline): 0.200 | β2 (diliganded channel opening rate constant) ([3]; αD97G kinetic mode G2): 570 s⁻¹ | L2 (diliganded gating equilibrium constant, β2/α2) ([3]; αD97G kinetic mode G2, choline): 0.605 | α2 (diliganded channel closing rate constant) ([8]; αD97A, 0.4 mM choline): 1,719 s^−1 | β2 (diliganded channel opening rate constant) ([8]; αD97A, 20 mM choline): 13,793 s^−1 | L2 (diliganded gating equilibrium constant, β2/α2) ([8]; αD97A, choline): 8.023 | α2 (diliganded channel closing rate constant) ([9]; 0.4 mM choline): 2,684 s^−1 | β2 (diliganded channel opening rate constant) ([9]; 20 mM choline): 91 s⁻¹ | L2 (diliganded gating equilibrium constant, β2/α2) ([9]; choline): 0.034 | α2 (diliganded channel closing rate constant) ([10]; 0.4 mM choline): 1,831 s^−1 | β2 (diliganded channel opening rate constant) ([10]; 20 mM choline): 2,748 s^−1 | L2 (diliganded gating equilibrium constant, β2/α2) ([10]; choline): 1.501 | α2 (diliganded channel closing rate constant) ([12]; 0.4 mM choline): 2,100 s^−1 | β2 (diliganded channel opening rate constant) ([12]; 20 mM choline): 100 s⁻¹ | L2 (diliganded gating equilibrium constant, β2/α2) ([12]; choline): 0.048 | α2 (diliganded channel closing rate constant) ([13]; 0.4 mM choline): 1,938 s^−1 | β2 (diliganded channel opening rate constant) ([13]; 20 mM choline): 1,840 s^−1 | L2 (diliganded gating equilibrium constant, β2/α2) ([13]; choline): 0.949 | choline dissociation from open AChRs (value subtracted from the α2 estimate) ([16]; ref Cymes et al., 2002): 200 s⁻¹ | channel-opening rate constant, times slower than for ACh ([16]; wt AChRs, ref Zhou et al., 1999, Grosman and Auerbach, 2000a): 500 times
